Active and inactive are the calls of the source.
Tests used:
[1] = target: G-protein coupled receptor 35 (Homo sapiens, UniProt Q9HC97); test: GPR35 antagonists blocking zaprinast-driven arrestin recruitment, primary screen, imaging, U2OS, beta-arrestin-GFP, zaprinast agonist (AID 2058); format: functional;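 also: antagonist potency meaning inhibition of agonist-induced arrestin redistribution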
Prothrombin = Prothrombin (Bos taurus, UniProt P00735); test: thrombin inhibition, dose response, biochemical, fluorescence polarization, uHTS hits (AID 602369); format: functional
[2] = target: 72 kDa type IV collagenase (Homo sapiens, UniProt P08253); test: Dose Response validation of uHTS RPN11 inhibitor hits using a MMP-2 Fluorescence assay.; format: functional
[3] = target: T1, Histone-lysine N-methyltransferase NSD2 (Homo sapiens, UniProt O96028); format: biochemical
T1 sequence (O96028 whole entry): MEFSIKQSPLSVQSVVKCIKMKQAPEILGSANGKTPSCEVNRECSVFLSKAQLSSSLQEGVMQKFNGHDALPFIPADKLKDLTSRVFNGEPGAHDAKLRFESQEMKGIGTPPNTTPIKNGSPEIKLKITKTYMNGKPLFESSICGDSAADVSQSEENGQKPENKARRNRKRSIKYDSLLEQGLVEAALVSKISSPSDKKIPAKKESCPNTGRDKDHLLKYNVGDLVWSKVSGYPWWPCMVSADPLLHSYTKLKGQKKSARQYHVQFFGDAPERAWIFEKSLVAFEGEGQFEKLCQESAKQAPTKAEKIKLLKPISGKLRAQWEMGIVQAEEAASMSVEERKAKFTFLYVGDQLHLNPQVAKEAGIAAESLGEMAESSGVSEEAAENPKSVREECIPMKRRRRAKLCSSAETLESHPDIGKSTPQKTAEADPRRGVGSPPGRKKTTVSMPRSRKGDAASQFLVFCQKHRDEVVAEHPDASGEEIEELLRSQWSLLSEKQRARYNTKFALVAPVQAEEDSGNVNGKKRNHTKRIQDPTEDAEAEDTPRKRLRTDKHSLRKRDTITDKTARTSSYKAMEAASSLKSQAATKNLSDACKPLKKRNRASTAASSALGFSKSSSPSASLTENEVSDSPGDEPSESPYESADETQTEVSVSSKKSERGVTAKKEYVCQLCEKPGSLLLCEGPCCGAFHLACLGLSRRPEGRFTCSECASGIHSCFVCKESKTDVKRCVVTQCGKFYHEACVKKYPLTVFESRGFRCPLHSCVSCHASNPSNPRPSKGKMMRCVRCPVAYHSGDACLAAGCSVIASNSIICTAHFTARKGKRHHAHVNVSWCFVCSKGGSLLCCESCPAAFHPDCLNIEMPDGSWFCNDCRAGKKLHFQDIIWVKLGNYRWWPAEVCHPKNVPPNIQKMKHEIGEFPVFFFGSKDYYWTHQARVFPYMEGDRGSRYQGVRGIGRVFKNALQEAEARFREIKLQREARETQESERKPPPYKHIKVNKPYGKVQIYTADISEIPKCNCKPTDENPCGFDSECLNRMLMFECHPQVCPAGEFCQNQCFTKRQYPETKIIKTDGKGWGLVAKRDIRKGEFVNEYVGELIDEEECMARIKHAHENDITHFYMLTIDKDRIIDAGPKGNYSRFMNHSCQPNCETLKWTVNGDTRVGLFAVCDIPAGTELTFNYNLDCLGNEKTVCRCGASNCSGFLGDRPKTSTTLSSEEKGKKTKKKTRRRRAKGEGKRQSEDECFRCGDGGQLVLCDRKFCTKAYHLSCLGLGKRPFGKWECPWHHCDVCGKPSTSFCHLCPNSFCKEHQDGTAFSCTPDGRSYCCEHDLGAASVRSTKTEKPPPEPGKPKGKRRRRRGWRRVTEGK

[4] = target: 26S proteasome non-ATPase regulatory subunit 14 (Homo sapiens, UniProt O00487); test: inhibition of proteasome subunit RPN11 – biochemical, fluorescence polarization, uHTS hits, confirmation (AID 602368); format: functional
Bcl-2-like protein 10 = Bcl-2-like protein 10 (Homo sapiens, UniProt Q9HD36); test: displacers of TR3 peptide from Bcl-B, primary screen, selectivity assay for Bfl-1 inhibitor project, biochemical, fluorescence polarization, FITC-TR3 peptide (AID 748);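 also: fluorescence polarization from a fluorescein-labelled TR3 peptide binding purified Bcl-B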
[5] = target: T2, Short transient receptor potential channel 4 (Mus musculus, UniProt Q9QUQ5); test: mouse TRPC4 channel inhibitors, dose response, cell-based, HEK293 TRPC4/mu-opioid, Fluo-4 calcium (AID 434942); format: functional;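 also: potency of inhibitors blocking the TRPC4 calcium response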
T2 sequence (Q9QUQ5 whole entry): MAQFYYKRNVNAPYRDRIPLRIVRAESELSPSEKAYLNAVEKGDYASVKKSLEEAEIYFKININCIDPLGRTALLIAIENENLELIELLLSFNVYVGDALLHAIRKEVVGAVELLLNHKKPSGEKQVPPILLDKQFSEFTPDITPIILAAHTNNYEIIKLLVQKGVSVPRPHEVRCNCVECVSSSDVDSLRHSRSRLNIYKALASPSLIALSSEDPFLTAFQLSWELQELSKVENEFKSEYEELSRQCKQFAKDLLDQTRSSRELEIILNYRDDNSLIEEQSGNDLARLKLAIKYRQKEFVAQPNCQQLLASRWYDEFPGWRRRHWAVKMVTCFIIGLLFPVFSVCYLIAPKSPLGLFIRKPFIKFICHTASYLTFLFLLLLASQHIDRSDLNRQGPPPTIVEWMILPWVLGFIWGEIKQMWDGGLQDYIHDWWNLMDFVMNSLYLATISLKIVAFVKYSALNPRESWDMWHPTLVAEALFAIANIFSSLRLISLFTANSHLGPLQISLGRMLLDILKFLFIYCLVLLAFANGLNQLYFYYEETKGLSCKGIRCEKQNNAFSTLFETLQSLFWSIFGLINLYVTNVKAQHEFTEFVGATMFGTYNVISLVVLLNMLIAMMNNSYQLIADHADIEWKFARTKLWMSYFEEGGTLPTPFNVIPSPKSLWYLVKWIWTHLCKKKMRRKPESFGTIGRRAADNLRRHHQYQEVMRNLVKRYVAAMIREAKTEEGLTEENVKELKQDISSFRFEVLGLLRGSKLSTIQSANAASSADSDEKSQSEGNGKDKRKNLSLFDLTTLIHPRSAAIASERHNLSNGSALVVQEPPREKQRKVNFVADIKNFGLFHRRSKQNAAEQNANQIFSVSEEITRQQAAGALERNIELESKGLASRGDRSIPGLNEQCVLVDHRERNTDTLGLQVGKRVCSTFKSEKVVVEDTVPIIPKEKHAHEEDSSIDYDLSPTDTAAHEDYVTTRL

[6] = target: T3, RNA-binding protein pos-1 (Caenorhabditis elegans, UniProt G5EF15); test: inhibitors of POS-1/mex-3 RNA binding, dose response, biochemical, fluorescence polarization (AID 1964);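 also: purified POS-1 fused to maltose binding protein made in E. coli; potency of compounds blocking POS-1 binding to fluorescent RNA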
T3 sequence (G5EF15 whole entry): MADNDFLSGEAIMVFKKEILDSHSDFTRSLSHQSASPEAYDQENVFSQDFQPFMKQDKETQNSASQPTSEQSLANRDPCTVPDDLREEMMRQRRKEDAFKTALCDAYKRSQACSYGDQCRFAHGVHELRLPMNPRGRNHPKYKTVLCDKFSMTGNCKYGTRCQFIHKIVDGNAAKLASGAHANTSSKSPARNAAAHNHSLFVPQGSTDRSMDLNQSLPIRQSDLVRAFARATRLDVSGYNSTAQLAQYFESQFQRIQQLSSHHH

[7] = target: T4, Zinc finger protein mex-5 (Caenorhabditis elegans, UniProt Q9XUB2); test: MEX-5/TCR-2 RNA interaction inhibitors, dose response, biochemical, C. elegans, fluorescence polarization (AID 1960)
T4 sequence (Q9XUB2 whole entry): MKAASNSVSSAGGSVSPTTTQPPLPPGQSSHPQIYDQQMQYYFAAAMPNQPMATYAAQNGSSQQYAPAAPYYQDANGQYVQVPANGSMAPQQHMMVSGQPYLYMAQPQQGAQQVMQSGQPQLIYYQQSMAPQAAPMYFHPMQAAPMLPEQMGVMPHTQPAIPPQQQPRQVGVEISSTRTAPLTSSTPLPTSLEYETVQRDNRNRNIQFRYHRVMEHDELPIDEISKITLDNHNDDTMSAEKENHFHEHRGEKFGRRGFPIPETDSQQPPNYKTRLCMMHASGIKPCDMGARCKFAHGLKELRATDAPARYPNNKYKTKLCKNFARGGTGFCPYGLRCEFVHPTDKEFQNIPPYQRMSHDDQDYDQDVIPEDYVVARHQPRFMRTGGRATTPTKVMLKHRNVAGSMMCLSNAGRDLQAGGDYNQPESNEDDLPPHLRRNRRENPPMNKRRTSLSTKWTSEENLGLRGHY

Estrogen receptor = target: T5, Estrogen receptor (Homo sapiens, UniProt P03372);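 also: potency for inhibiting coactivator peptide recruitment to the receptor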
T5 sequence (P03372 whole entry): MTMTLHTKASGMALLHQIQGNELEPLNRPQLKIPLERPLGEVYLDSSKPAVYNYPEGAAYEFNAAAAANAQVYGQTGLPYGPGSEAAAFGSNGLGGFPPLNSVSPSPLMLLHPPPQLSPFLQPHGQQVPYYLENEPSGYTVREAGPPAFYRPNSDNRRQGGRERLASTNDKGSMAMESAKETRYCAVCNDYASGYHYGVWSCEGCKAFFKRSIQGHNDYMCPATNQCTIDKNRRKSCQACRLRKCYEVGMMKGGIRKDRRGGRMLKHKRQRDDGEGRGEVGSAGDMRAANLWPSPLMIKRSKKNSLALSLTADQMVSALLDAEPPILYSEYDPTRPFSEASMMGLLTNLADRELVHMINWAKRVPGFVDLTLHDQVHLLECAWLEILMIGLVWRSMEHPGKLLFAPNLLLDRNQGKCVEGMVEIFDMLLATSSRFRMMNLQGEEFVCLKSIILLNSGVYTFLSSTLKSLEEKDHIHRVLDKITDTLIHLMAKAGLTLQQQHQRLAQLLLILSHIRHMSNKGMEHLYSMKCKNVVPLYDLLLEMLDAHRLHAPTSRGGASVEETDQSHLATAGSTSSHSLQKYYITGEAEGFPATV

[8] = Cytotoxicity screening for potential Inhibitors of Bacterial Capsule Biogenesis. [Related pubchem assays (depositor defined):AID488970]; format: functional
Estrogen receptor beta = Estrogen receptor beta (Homo sapiens, UniProt Q92731); test: ERβ–SRC-3 coactivator interaction inhibitors, confirmation, orthogonal assay, biochemical, ELISA, streptavidin-HRP readout (AID 1060)
[9] = target: Melanin-concentrating hormone receptor 1 (Homo sapiens, UniProt Q99705); test: Late-stage fluorescence-based counterscreen for antagonists of the G-protein coupled receptor 7 (GPR7): cell-based dose response assay to identify antagonists of the melanin-concentrating hormone receptor 1 (MCHR1). [Related pubchem assays (depositor defined):AID1861, AID1880, AID1952, AID2148, AID2251, AID2257, AID485339]; format: functional;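 also: stimulated with 30 nM MCH peptide agonist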
[10] = target: T6, Neuropeptides B/W receptor type 1 (Homo sapiens, UniProt P48145); test: GPR7 antagonist potency, late-stage follow-up, cell-based, fluorescence, dose response (AID 463251); format: functional
T6 sequence (P48145 whole entry): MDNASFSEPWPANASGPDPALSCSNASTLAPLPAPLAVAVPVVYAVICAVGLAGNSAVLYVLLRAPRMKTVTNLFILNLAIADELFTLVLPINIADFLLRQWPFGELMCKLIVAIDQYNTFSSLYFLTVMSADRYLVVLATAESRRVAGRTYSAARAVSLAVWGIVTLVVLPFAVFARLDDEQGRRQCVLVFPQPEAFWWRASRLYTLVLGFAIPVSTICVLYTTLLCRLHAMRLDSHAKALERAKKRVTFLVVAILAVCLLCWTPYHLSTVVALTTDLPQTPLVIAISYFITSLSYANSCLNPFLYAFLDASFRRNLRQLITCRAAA

[11] = target: Phosphoethanolamine/phosphocholine phosphatase (Homo sapiens, UniProt Q8TCT1); test: SAR assay for compounds that inhibit PHOSPHO1. [Related pubchem assays (depositor defined):AID1545, AID1565, AID1574]
Chain of Phosphoethanolamine/phosphocholine phosphatase (Q8TCT1 whole entry): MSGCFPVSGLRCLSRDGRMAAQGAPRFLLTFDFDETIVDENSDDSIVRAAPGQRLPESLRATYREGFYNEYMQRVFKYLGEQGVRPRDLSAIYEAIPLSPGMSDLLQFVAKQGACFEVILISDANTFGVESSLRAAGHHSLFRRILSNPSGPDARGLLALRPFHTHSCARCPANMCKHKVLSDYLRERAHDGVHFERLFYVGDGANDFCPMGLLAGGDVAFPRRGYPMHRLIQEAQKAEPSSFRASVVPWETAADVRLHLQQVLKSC

Chain of 72 kDa type IV collagenase (P08253 whole entry): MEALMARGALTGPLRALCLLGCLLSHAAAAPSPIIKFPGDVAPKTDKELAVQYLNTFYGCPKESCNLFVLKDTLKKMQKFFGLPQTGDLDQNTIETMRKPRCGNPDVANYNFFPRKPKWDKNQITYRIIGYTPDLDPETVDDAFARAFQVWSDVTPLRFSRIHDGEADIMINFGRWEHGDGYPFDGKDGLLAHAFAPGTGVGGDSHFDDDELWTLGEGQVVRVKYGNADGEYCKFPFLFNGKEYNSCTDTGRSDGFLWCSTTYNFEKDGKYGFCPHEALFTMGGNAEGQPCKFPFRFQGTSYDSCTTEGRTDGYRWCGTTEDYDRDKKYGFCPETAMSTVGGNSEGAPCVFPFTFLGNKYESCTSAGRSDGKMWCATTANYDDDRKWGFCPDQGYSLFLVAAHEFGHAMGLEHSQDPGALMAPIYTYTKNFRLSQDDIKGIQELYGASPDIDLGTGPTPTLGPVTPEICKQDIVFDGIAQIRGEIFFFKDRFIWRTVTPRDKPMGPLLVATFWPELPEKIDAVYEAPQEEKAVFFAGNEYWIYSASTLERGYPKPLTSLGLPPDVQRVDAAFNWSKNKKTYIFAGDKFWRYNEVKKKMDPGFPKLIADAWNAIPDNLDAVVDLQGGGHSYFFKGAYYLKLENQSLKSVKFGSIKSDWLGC
Chain of Bcl-2-like protein 10 (Q9HD36 whole entry): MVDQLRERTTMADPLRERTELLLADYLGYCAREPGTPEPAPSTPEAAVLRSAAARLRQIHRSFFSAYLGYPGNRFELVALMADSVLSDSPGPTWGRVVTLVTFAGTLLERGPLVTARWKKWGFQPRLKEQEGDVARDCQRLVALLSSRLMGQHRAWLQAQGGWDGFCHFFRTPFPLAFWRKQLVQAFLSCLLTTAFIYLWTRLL
Chain of 26S proteasome non-ATPase regulatory subunit 14 (O00487 whole entry): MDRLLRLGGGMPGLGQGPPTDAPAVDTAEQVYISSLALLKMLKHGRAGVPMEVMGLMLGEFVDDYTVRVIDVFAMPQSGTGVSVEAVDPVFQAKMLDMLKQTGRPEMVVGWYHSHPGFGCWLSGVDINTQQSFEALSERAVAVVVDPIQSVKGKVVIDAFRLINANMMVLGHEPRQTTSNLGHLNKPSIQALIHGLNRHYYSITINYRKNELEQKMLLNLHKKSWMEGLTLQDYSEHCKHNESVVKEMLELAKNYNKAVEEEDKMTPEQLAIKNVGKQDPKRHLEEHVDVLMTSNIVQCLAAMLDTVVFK
Chain of Estrogen receptor beta (Q92731 whole entry): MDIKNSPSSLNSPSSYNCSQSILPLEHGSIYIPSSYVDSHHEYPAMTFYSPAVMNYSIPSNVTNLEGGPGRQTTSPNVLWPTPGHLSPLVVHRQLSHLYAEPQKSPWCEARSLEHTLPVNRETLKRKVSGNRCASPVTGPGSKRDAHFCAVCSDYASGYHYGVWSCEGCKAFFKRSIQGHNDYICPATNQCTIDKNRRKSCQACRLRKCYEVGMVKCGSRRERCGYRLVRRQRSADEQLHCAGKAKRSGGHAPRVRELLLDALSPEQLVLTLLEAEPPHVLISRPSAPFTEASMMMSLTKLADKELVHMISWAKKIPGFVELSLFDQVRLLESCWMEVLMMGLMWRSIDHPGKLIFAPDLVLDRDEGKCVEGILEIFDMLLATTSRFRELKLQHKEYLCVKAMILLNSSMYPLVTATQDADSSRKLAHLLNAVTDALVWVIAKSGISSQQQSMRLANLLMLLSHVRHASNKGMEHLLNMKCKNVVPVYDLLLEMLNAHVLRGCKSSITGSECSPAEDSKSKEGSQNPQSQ
Chain of G-protein coupled receptor 35 (Q9HC97 whole entry): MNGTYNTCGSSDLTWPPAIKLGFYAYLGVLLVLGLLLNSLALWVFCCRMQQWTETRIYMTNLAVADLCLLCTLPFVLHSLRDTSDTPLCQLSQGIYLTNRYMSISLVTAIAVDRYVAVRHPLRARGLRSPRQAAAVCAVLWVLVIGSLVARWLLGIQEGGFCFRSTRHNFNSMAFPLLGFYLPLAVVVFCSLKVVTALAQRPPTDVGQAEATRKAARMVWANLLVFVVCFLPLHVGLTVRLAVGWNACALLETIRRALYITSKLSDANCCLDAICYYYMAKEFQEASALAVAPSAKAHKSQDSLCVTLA
Chain of Melanin-concentrating hormone receptor 1 (Q99705 whole entry): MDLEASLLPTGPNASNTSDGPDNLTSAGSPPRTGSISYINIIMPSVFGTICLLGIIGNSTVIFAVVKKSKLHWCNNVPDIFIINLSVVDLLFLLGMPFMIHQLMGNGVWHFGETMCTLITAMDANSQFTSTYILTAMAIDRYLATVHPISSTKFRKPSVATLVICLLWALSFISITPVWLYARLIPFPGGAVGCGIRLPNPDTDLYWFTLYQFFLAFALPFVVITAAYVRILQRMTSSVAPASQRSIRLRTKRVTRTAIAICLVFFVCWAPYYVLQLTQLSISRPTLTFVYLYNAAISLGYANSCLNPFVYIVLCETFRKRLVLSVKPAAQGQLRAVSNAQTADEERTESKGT

## O=C(/C=C/c1ccco1)Nc1cccc(C(=O)Nc2ccccc2C(=O)O)c1
[1]
  IC50: < 0.5 µM (active)
Prothrombin
  IC50: 39.8 µM (active)
[2]
  IC50: 97.4 µM (active)
[3]
  AC50: 18.6 µM (active)
[4]
  IC50: 23.1 µM (active)

## COc1ccccc1NCCC(=O)OCC(=O)NCc1ccco1
Bcl-2-like protein 10
  IC50: 69.1 µM (inactive)

## CCOC(=O)C1(Cc2cccc(OC)c2)CCN(Cc2cccc(O)c2)CC1
[5]
  EC50: 9.44 µM (active)

## CCC1=NN2C(=N)/C(=C\c3ccc(SCc4ccco4)o3)C(=O)N=C2S1
[6]
  EC50: 4.36 µM (active)
[7]
  EC50: 6.85 µM (active)
[3]
  AC50: 16.2 µM (active)
Estrogen receptor
  IC50: 21 µM (active)
[8]
  CC50: > 100 µM (active)
Estrogen receptor beta
  IC50: > 50 µM (not active)

## O=c1c(Oc2ccc(O)cc2)c(Cl)cnn1-c1ccccc1
[9]
  IC50: 11.1 µM (inactive)
[10]
  IC50: 2.8 µM (active)

## c1ccc(CNc2nc(-c3ccccc3)[n+](-c3ccccc3)s2)cc1
[11]
  IC50: 2.59 µM (inactive)

Source: ChEMBL document CHEMBL1201862, “PubChem BioAssay data set” (2004)
